Measured values from patent US20160120831A1, “INCREASE OF PROTEIN SYNTHESIS AMELIORATES SYNAPTOPATHY-RELATED NEUROLOGICAL DISORDERS” (Academia Sinica, priority 2014, published 2016).

Assays:
ATL-1^R95G = assay: Dendritic spine density of neurons expressing wild-type or mutant ATL1; type: cell-based, mouse; conditions: mutant ATL1 neurons; 2.5 mM or 5 mM leucine, 3 days; P<0.001
Method: For primary neuronal culture, pregnant mice were sacrificed by subjecting to CO2 inhalation, and the fetal pups were isolated and sacrificed by decapitation. Then, cortical neurons were dissociated from the brains of embryonic mice of 18 days. The obtained neurons were cultured in Neurobasal medium, supplemented with 2% B27 supplement, 0.5 mM glutamine, and 12.5 μM glutamate in the density of 260,000 cells/cm^2. The cells were kept in a 5% CO2-humidified chamber at 37° C. Mouse Atl1 was amplified by PCR with a primer set respectively having nucleotide sequences of SEQ ID NOs: 5 and 6. The amplified products were subcloned into the Gw1-Myc2b vector. The […] mutant was generated by site directed mutagenesis with a primer set respectively having nucleotide sequences of SEQ ID NOs: 7 and 8. Images of neurons were recorded with a confocal microscope (LSM700, Zeiss) equipped with a Plan-Apochromat 63×NA 1.4 oil objective lens (Zeiss) and captured with Zen acquisition and analysis software (Zeiss) at 20-22° C. as a Z-series of 5-12 sections spaced 0.6-0.8 μm apart. The Z-series was then projected into single images. […] To analyze dendritic spine density, the spine number of each dendrite fragment about 20 μm in length, which started from a point 20 μm away from the soma, was manually counted using Image J software. […]

Nf1^+/- neurons = assay: Dendritic spine density of wild-type or Nf1^+/- neurons; type: cell-based, mouse
Method: For primary neuronal culture, pregnant mice were sacrificed by subjecting to CO2 inhalation, and the fetal pups were isolated and sacrificed by decapitation. Then, cortical neurons were dissociated from the brains of embryonic mice of 18 days. The obtained neurons were cultured in Neurobasal medium, supplemented with 2% B27 supplement, 0.5 mM glutamine, and 12.5 μM glutamate in the density of 260,000 cells/cm^2. The cells were kept in a 5% CO2-humidified chamber at 37° C. Images of neurons were recorded with a confocal microscope (LSM700, Zeiss) equipped with a Plan-Apochromat 63×NA 1.4 oil objective lens (Zeiss) and captured with Zen acquisition and analysis software (Zeiss) at 20-22° C. as a Z-series of 5-12 sections spaced 0.6-0.8 μm apart. The Z-series was then projected into single images. The images were processed with Photoshop (Adobe), with minimal adjustment of brightness or contrast applied to the whole images. To analyze dendritic spine density, the spine number of each dendrite fragment about 20 μm in length, which started from a point 20 μm away from the soma, was manually counted using Image J software. As dendritic spine formation is highly sensitive to culture conditions, each experiment was repeated using the same lot of culture medium. […] To minimize the effects of bias, some of the critical experiments were performed blind by relabeling the samples with the assistance of other lab members.

SOD1-G93A mice = assay: Animal model of amyotrophic lateral sclerosis (ALS), survival; type: in vivo, mouse; conditions: leucine supplement water 80 mg/day from 120 days old
Method: To examine the effect of leucine on ALS, 120 days old mice (wild-type or SOD1-G93A mice) were provided with normal water or leucine supplement water (80 mg/day) until animal died.
SOD1-G93A mouse is an animal model widely used in the art for ALS study. In this example, the SOD1-G93A transgenic mice were used to evaluate the effect of leucine on ALS.

Nf1^+/- mice [1] = assay: Golgi staining of mouse brains for dendritic spine density; type: in vivo; conditions: Nf1^+/- mice after taking leucine solution
VCP^R95G-neurons = assay: Azidohomoalanine (AHA) labelling of protein synthesis in neurons transfected with wild-type or mutant VCP; type: cell-based, mouse; conditions: leucine for 3 days, AHA label 1 hour
Method: FIG. 1A are confocal microscopy images of neurons that are respectively transfected with specified plasmids respectively expressing wild-type (WT) VCP and mutant VCP, and treated with 2.5 mM leucine for three days and labeled with azidohomoalanine (AHA) for 1 hour according to Example 1 of the present disclosure; the transfected neurons are either pointed by arrows or outlined; scale bar presents 20 μm; FIG. 1B is a histogram depicting the relative AHA intensity of neurons that were respectively transfected with specified plasmids, and treated with different concentrations of leucine for three days and labeled with AHA for 1 hour according to Example 1 of the present disclosure; data from three independent experiments are presented as mean plus standard error of mean (SEM); ns, no significance; ***, P<0.001; For primary neuronal culture, pregnant mice were sacrificed by subjecting to CO2 inhalation, and the fetal pups were isolated and sacrificed by decapitation. Then, cortical neurons were dissociated from the brains of embryonic mice of 18 days. The obtained neurons were cultured in Neurobasal medium, supplemented with 2% B27 supplement, 0.5 mM glutamine, and 12.5 μM glutamate in the density of 260,000 cells/cm^2. The cells were kept in a 5% CO2-humidified chamber at 37° C. […]

Nf1^+/- mice [2] = assay: Contextual fear conditioning; type: in vivo, mouse
Method: To examine the effect of leucine on contextual fear memory, mice (wild-type or Nf1^+/− mice) were provided with normal water or leucine supplement water (0.9-3.6 g/Kg) for 7 days prior to testing, which was continued through the entire behavioral task. Mice were subjected to contextual fear conditioning, which was carried out for 6 days with one trial per day. For the first 5 days, mice were placed into the conditioning chamber for 60 sec, then a single foot shock was performed (0.4 mA intensity for 2 sec). After the foot shock, mice were left in the chamber for another 120 sec before returning to their home cage. On the 6th day, mice were placed into the conditioning chamber for 180 sec without foot shock. Freezing responses during the first 10-60 sec of each trial were videotaped and measured using the FreezeScan 2.0 system (CleverSys). Nf1^+/− mice were used to study the effect of leucine on learning and memory, in which the effect was assessed by contextual fear conditioning as described in Materials and Methods. Briefly, wild-type or Nf1^+/− mice were administered water or leucine, as a supplement in water, for 7 days and then subjected to contextual fear conditioning (FIG. 4A). There was no difference in drinking preference for water or leucine solution between WT and Nf1^+/− mice, nor was there difference in weight gain between the two mice (FIG. 4B).

[3] = test system: VCP^R95G-expressing neurons; assay: Dendritic spine density of neurons transfected with VCP^WT or VCP^R95G plasmids; type: cell-based, mouse
Method: For primary neuronal culture, pregnant mice were sacrificed by subjecting to CO2 inhalation, and the fetal pups were isolated and sacrificed by decapitation. Then, cortical neurons were dissociated from the brains of embryonic mice of 18 days. The obtained neurons were cultured in Neurobasal medium, supplemented with 2% B27 supplement, 0.5 mM glutamine, and 12.5 μM glutamate in the density of 260,000 cells/cm^2. The cells were kept in a 5% CO2-humidified chamber at 37° C. The wild-type VCP gene was amplified by PCR using a forward primer having a nucleotide sequence of SEQ ID NO: 1, and a reverse primer having a nucleotide sequence of SEQ ID NO: 2. The amplified DNA segment was subsequently constructed in to GW1-Myc plasmid. To generate the […] mutation, a pair of primers respectively having nucleotide sequences of SEQ ID NOs: 3 and 4 were used in site-directed mutagenesis with wild-type VCP construct as a template. […] Images of neurons were recorded with a confocal microscope (LSM700, Zeiss) equipped with a Plan-Apochromat 63×NA 1.4 oil objective lens (Zeiss) and captured with Zen acquisition and analysis software (Zeiss) at 20-22° C. as a Z-series of 5-12 sections spaced 0.6-0.8 μm apart. […] To analyze dendritic spine density, the spine number of each dendrite fragment about 20 μm in length, which started from a point 20 μm away from the soma, was manually counted using Image J software. […]

SMILES: CC(C)C[C@H](N)C(=O)O [leucine]
- dendritic spine number (ATL-1^R95G): significantly increased the dendritic spine number
- protrusion number versus wild-type neurons (Nf1^+/- neurons; Nf1^+/- neurons, 2.5 mM leucine): equal to that of wild-type neurons
- dendritic spine formation / dendritic spine number (Nf1^+/- neurons; Nf1^+/- neurons, leucine for 3 days): significantly ameliorated the defect in dendritic spine formation
- number of protrusions (Nf1^+/- neurons; wild-type dendrite fragment, leucine for 3 days): did not further raise the number of protrusions
- percentage of survival (SOD1-G93A mice): significantly increased the percentage of survival
- mean survival time (SOD1-G93A mice; control mice 147.3±3.84 days): 172.0 ± 3.96 days
- dendritic spine density in brain (Nf1^+/- mice [1]): increase in dendritic spine density
- AHA intensity (VCP^R95G-neurons): dose-dependently increased the AHA intensity
- freezing responses versus WT mice (Nf1^+/- mice [2]; Nf1^+/- mice after leucine administration): comparable to those of WT mice
- associative memory (freezing response) (Nf1^+/- mice [2]; Nf1^+/- mice, leucine supplement water 0.9-3.6 g/Kg, oral): significantly increase the associative memory
- fear memory (freezing response) (Nf1^+/- mice [2]; wild-type mice, leucine supplement water 0.9-3.6 g/Kg, oral): did not further enhance the fear memory
- protrusion number of dendrite fragment ([3]; VCP^R95G-dendrite fragment, leucine 2 mM (P<0.01) and 2.5 mM (P<0.001) vs basal, 3 days): significantly increased the protrusion number
- protrusion number of dendrite fragment ([3]; VCP^WT-dendrite fragment, leucine for 3 days): did not produce obvious effect
